Results on 53 molecules are retold here after patent publication US20060247320A1, “Compounds for inhibiting KSP kinesin activity” (priority 2005, published 2006).

By IC50 is commonly meant the concentration at which inhibition is half-maximal.

One experiment deals with T1, KSP motor domain (Homo sapiens, UniProt P52732).
T1 sequence (P52732 18-359 limits assumed): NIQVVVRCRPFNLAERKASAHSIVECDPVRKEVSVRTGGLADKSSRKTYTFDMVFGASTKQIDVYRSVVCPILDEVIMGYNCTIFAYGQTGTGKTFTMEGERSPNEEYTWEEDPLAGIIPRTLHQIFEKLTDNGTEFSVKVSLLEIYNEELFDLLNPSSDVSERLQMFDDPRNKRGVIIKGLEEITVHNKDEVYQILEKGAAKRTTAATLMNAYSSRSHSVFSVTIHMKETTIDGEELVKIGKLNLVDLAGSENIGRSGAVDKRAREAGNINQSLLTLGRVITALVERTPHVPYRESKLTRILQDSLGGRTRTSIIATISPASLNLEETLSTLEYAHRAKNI
Kind of experiment: biochemical. The settings on record: IC50 (nM), KSP inhibitory activity, end-point assay; class symbols (Table 1).
The molecule `CCOC(=O)c1sc2nc3c(cc2c1N)CC([Si](C)(C)C)CC3` (stereo not shown) [Example 187, Ethyl 3-Amino-5,6,7,8-Tetrahydro-6-(Trimethylsilyl)thieno[2,3-b]quinoline-2-Carboxylate] gave an IC50 of over 10000 nM.
As for `C[Si](C)(C)C1CCc2nc3sc(C(=O)NCCN)cc3cc2C1` (stereo not shown) [Example 191, N-(2-Aminoethyl) 5,6,7,8-Tetrahydro-6-(Trimethylsilyl)thieno[2,3-b]quinoline-2-Carboxamide], the IC50 is under 100 nM.

Staying with this experiment, now noted: IC50 (nM), exact IC50 values, end-point assay (Table 2).
`C[Si](C)(C)C1CCc2nc3sc(C(=O)NCCN)cc3cc2C1` (stereo not shown) [Example 191, N-(2-Aminoethyl) 5,6,7,8-Tetrahydro-6-(Trimethylsilyl)thieno[2,3-b]quinoline-2-Carboxamide] showed an IC50 of 10 nM.

Staying with this experiment, now noted: KSP inhibitory activity, end-point assay; class symbols (Table 1).
With `CC(C)(C)C1CCc2nc3sc(NC(N)=O)cc3cc2C1` (stereo not shown) [Example 125, (6-tert-Butyl-5,6,7,8-tetrahydrothieno[2,3-b]quinolin-2-yl)urea], the “IC50 (nM)” value is given as “B/C”.

The same experiment, now with this note: KSP inhibitory activity, end-point assay; class symbols (Table 1); read-out: IC50.
Take `CC(C)(C)C1CCc2nc3sc(C#N)c(Cl)c3cc2C1` (stereo not shown) [Example 111, 6-tert-Butyl-3-chloro-5,6,7,8-tetrahydrothieno[2,3-b]quinoline-2-carbonitrile]: the IC50 is over 10000 nM.
On the same count and under the same terms, the same measure for `N#Cc1sc2nc3c(cc2c1N)C/C(=C/C1CC1)CC3` [Example 37]: over 10000 nM; for `CC(C)(C)C1CCc2nc3sc(C(=O)N[C@H](CN)c4ccc(N)cc4)cc3cc2C1` (stereo partly shown) [Example 218]: under 100 nM.
The same measure, in the same setting: the same measure for `CC(C)(C)C1CCc2nc3sc(C(=O)Nc4cccnc4)cc3cc2C1` (stereo not shown) [Example 226B]: 100 to 1000 nM.
Consider `CC(C)(C)C1CCc2nc3sc(C(=O)N[C@H](CN)c4cccc(-c5cccc6cccnc56)c4)cc3cc2C1` (stereo partly drawn) [Example 213, 6-tert-butyl-5,6,7,8-tetrahydro-thieno[2,3-b]quinoline-2-carboxylic acid [(1S)-2-amino-1-(3-quinolin-8-yl-phenyl)-ethyl]-amide], for which the IC50 lay in the range of 100 to 1000 nM.
On the same count and under the same terms, the same measure for `Cc1cnc(C(=O)Nc2cccc([C@@H](CN)NC(=O)c3cc4cc5c(nc4s3)CC[C@@H](C(C)(C)C)C5)c2)cn1` [Example 259]: under 100 nM; for `CC(C)(C)C1CCc2nc3sc(C(N)=O)nc3cc2C1` (stereo not shown) [Example 131, 7-tert-Butyl-5,6,7,8-tetrahydrothiazolo[5,4-b]quinoline-2-carboxylic acid amide]: 100 to 1000 nM; for `CC(C)(C)C1CCc2nc3sc(C(=O)NC(CN)c4ccccc4)cc3cc2C1` (stereo not shown) [Example 178]: under 100 nM.
On the same count and under the same terms, with `N#Cc1sc2nc3c(cc2c1N)CC(C1CCCCC1)CC3` (stereo not shown) [Example 18] the figure was over 10000 nM; with `CC(C)(C)C1CCc2nc3sc(C(=O)NCCN4CCOCC4)cc3cc2C1` (stereo not shown) [Example 194, 6-(1,1-Dimethylethyl)-5,7,8-Tetrahydro-N-[2-(4-Morpholinyl)ethyl]thieno[2,3-b]quinoline-2-Carboxamide], 1000 to 10000 nM; with `Cn1ncc(C(=O)Nc2cccc([C@@H](CN)NC(=O)c3cc4cc5c(nc4s3)CC[C@@H](C(C)(C)C)C5)c2)c1C(F)(F)F` [Example 245], under 100 nM.
Regarding `CC(CO)NC(=O)c1sc2nc3c(cc2c1N)CC(C(C)(C)C)CC3` (stereo in doubt) [Example 192, 3-Amino-6-(1,1-Dimethylethyl)-5,6,7,8-Tetrahydro-N-(2-Hydroxy-1(S)-Methylethyl)thieno[2,3-b]quinoline-2-Carboxamide], the IC50 was in the range of 1000 to 10000 nM.
Turning to `CC1Cc2nc3sc(C#N)c(N)c3cc2C(C)C1` (stereo not shown) [Example 46], the IC50 was over 10000 nM.
Consider `CC(C)(C)C1CCc2nc3sc(C(=O)N[C@H](CN)c4cccc(N)c4)cc3cc2C1` (stereo partly shown) [Example 217], for which the IC50 is under 100 nM.
For the molecule `CCC(C1CCc2nc3sc(C#N)c(N)c3cc2C1)C(C)(C)C` (stereo not shown) [Example 29], the IC50 was over 10000 nM.
`Cc1cc(C(=O)Nc2cccc([C@@H](CN)NC(=O)c3cc4cc5c(nc4s3)CC[C@@H](C(C)(C)C)C5)c2)nn1C` [Example 244]: the IC50 was under 100 nM.
Consider `N#Cc1sc2nc3c(cc2c1N)CN(CC1CC1)CC3` [Example 55], for which the IC50 is over 10000 nM.
In the case of `CCC(C)(C)C1CCc2nc3sc(C#N)c(N)c3c(SC)c2C1` (stereo not shown) [Example 54], the IC50 is over 10000 nM.
As to `CC(C)(C)C1CCc2nc3sc(CC(N)=O)cc3cc2C1` (stereo not shown) [Example 149], the IC50 was in the range of 1000 to 10000 nM.
As for `CC(C)(C)C1CCc2nc3sc(C(=O)N4CCCC[C@@H]4C(=O)O)cc3cc2C1` (stereo partly shown) [Example 91], the IC50 is over 10000 nM.
On to `CC1(C2CCc3nc4sc(C#N)c(N)c4cc3C2)CCCC1` (stereo not shown) [Example 6], for which the IC50 lay within 100 to 1000 nM.
For the molecule `CC(C)(C)[C@@H]1CCc2nc3sc(C(=O)N[C@H](CN)c4cccc(NC(=O)c5ccco5)c4)cc3cc2C1` [Example 262, 6-tert-Butyl-5,6,7,8-tetrahydrothieno[2,3-b]quinoline-2-carboxylic acid (2-amino-1-{3-[(furan-2-carbonyl)amino]phenyl}ethyl)amide], the IC50 was under 100 nM.
On the same count and under the same terms, the same measure for `CC(C)(C)C1CCc2nc3sc(S(N)(=O)=O)cc3cc2C1` (stereo not shown) [Example 123, 6-tert-Butyl-5,6,7,8-tetrahydrothieno[2,3-b]quinoline-2-sulfonic acid amide]: 100 to 1000 nM.
In the case of `Cc1nnsc1C(=O)Nc1cccc([C@@H](CN)NC(=O)c2cc3cc4c(nc3s2)CC[C@@H](C(C)(C)C)C4)c1` [Example 258], the IC50 was under 100 nM.
The same measure, in the same setting: the same measure for `CCNC(=O)c1cc2cc3c(nc2s1)CCC(C(C)(C)C)C3` (stereo not shown) [Example 79]: 1000 to 10000 nM; for `CC(C)C1CCc2nc3sc(C#N)c(N)c3cc2C1` (stereo not shown) [Example 1, 3-amino-6-isopropyl-5,6,7,8-tetrahydrothieno[2,3-b]quinoline-2-carbonitrile]: 1000 to 10000 nM.
As for `CC(C)(C)C1CCc2nc3sc(C(=O)N[C@H](C#N)Cc4ccc(O)cc4)cc3cc2C1` (stereo partly shown) [Example 164], the IC50 lay within 100 to 1000 nM.
Consider `Cc1ccc([C@@H](CN)NC(=O)c2cc3cc4c(nc3s2)CCC(C(C)(C)C)C4)cc1` (stereo partly shown) [Example 221], for which the IC50 was under 100 nM.
In the case of `CC(C)(C)C1CCc2nc3sc(C(=O)Nc4ccc(N)cc4)cc3cc2C1` (stereo not shown) [Example 226F], the IC50 lay within 100 to 1000 nM.
`CC(C)(C)C1CCc2nc3sc(-c4ncc(CN)[nH]4)cc3cc2C1` (stereo not shown) [Example 184, [2-(6-tert-Butyl-5,6,7,8-tetrahydrothieno[2,3-b]quinolin-2-yl)-3H-imidazol-4-yl]methylamine]: the IC50 lay within 100 to 1000 nM.
On the same count and under the same terms, the same measure for `CC(C)(C)[C@@H]1CCc2nc3sc(C(=O)N[C@H](CN)c4ccc(NC(=O)c5cscn5)cc4)cc3cc2C1` [Example 270]: under 100 nM; for `CC(C)(C)C1CCc2nc3sc(C(=O)NC(CN)c4cccc(NC(=O)c5cnccn5)c4)cc3cc2C1` (stereo not shown) [Example 227, 6-tert-Butyl-5,6,7,8-tetrahydrothieno[2,3-b]quinoline-2-carboxylic acid (2-amino-1-{3-[(pyrazine-2-carbonyl)amino]phenyl}ethyl)amide]: under 100 nM.
`CCC(C)(C)C1CCc2nc3sc(C#N)cc3c(Cl)c2C1` (stereo not shown) [Example 113]: the IC50 lay within 1000 to 10000 nM.
For `CCC(CC)(CC)C1CCc2nc3sc(C#N)c(N)c3cc2C1` (stereo not shown) [Example 5], the 50% inhibitory concentration (IC50) lay in the range of 1000 to 10000 nM.
Still for that read-out and setting: the same measure for `CCC(C)(C)C1Cc2cc3c(N)c(C#N)sc3nc2C1` (stereo not shown) [Example 38]: 1000 to 10000 nM; for `COC(=O)[C@H]1CCCN1C(=O)c1cc2cc3c(nc2s1)CCC(C(C)(C)C)C3` (stereo partly shown) [Example 89]: over 10000 nM; for `CC(C)(C)C1CCc2nc3sc(C(=O)N[C@H](C(=N)N)c4ccccc4)cc3cc2C1` (stereo partly shown) [Example 172]: 100 to 1000 nM.
`CCC(C)(C)C1CCc2nc3sc(C#N)cc3cc2C1` (stereo not shown) [Example 59]: the IC50 was under 100 nM.
On to `N#Cc1sc2nc3c(cc2c1N)CC1(CC3)OCCO1` [Example 44], for which the half-inhibitory concentration (IC50) was over 10000 nM.
Regarding `CCCCCC1CCc2nc3sc(C#N)c(N)c3cc2C1` (stereo not shown) [Example 19], the IC50 is over 10000 nM.
With `CC(C)(C)C1CCc2nc3sc(C(=O)N[C@H](CO)c4ccccc4)cc3cc2C1` (stereo partly shown) [Example 160], the IC50 was 1000 to 10000 nM.
For `CC(C)(C)C1CCc2nc3sc(C(=O)Nc4ccc(O)cc4)cc3cc2C1` (stereo not shown) [Example 226A, 2-(1-Amino-4-Hydroxyphenyl) carboxamido-6-tert-butyl-5,6,7,8-tetrahydrothieno [2,3-b]quinoline], the IC50 was 100 to 1000 nM.
As to `CSc1nc2cc3c(nc2s1)CCC(C(C)(C)C)C3` (stereo not shown) [Example 129, 7-tert-butyl-2-methylsulfanyl-5,6,7,8-tetrahydrothiazolo[5,4-b]quinoline], the IC50 was over 10000 nM.
Same read-out and setting: the same measure for `CC(C)(C)C1CCc2nc3sc(S(C)(=O)=O)c(O)c3cc2C1` (stereo not shown) [Example 121, 6-tert-Butyl-2-methanesulfonyl-5,6,7,8-tetrahydrothieno[2,3-b]quinolin-3-ol]: over 10000 nM; for `CC(C)(C)C1CCc2nc3sc(C(=O)Nc4ccc(N)nc4)cc3cc2C1` (stereo not shown) [Example 226J]: 100 to 1000 nM.
On the same count and under the same terms, with `N#Cc1sc2nc3c(cc2c1N)CC(c1ccccc1)CC3` (stereo not shown) [Example 3] the figure was over 10000 nM.
Same read-out and setting: with `CC(C)(C)C1CCc2nc3sc(S(C)(=O)=O)c(N)c3cc2C1` (stereo not shown) [Example 120, 6-tert-Butyl-2-methanesulfonyl-5,6,7,8-tetrahydrothieno[2,3-b]quinolin-3-ylamine] the figure was 100 to 1000 nM; with `CC(C)(C)C1CCc2nc3sccc3cc2C1` (stereo not shown) [Example 105, 6-tert-Butyl-5,6,7,8-tetrahydrothieno[2,3-b]quinoline], 1000 to 10000 nM.
Consider `CC(C)C(C)C1CCc2nc3sc(C#N)c(N)c3cc2C1` (stereo not shown) [Example 30], for which the IC50 was in the range of 100 to 1000 nM.
The same measure, in the same setting: the same measure for `CC(C)(C)[C@@H]1CCc2nc3sc(C(=O)N[C@H](CN)c4cccc(NC(=O)c5cnc6ccccc6n5)c4)cc3cc2C1` [Example 228]: under 100 nM.

Still in this experiment, the particulars now being: exact IC50 values, end-point assay (Table 2); read-out: IC50.
Consider `Cc1cnc(C(=O)Nc2cccc([C@@H](CN)NC(=O)c3cc4cc5c(nc4s3)CC[C@@H](C(C)(C)C)C5)c2)cn1` [Example 259], for which the IC50 is 17 nM.
In the case of `CC(C)(C)C1CCc2nc3sc(C(=O)NC(CN)c4ccccc4)cc3cc2C1` (stereo not shown) [Example 178], the IC50 is 25 nM.
Regarding `CC(C)(C)C1CCc2nc3sc(C(=O)NC(CN)c4cccc(NC(=O)c5cnccn5)c4)cc3cc2C1` (stereo not shown) [Example 227, 6-tert-Butyl-5,6,7,8-tetrahydrothieno[2,3-b]quinoline-2-carboxylic acid (2-amino-1-{3-[(pyrazine-2-carbonyl)amino]phenyl}ethyl)amide], the IC50 turned out to be 21 nM.
In the case of `CCC(C)(C)C1CCc2nc3sc(C#N)cc3cc2C1` (stereo not shown) [Example 59], the IC50 worked out at 55 nM.
